Source: PubChem BioAssay (NCI)
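Each compound was tested at five concentrations against cells in 96-well plates for 48 hours. GI50 = concentration required for 50% inhibition of growth. TGI is the concentration that stops growth completely.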

What was measured:
Assay in all cases: growth of human tumour cells (NCI), 48 h
[1] = system: MALME-3M melanoma
[2] = system: UO-31 renal
[3] = system: NCI/ADR-RES ovarian
[4] = system: SK-MEL-28 melanoma
[5] = system: SNB-19 CNS
[6] = system: CAKI-1 renal
[7] = system: MDA-MB-231 breast
[8] = system: NCI-H522 lung
[9] = system: SW-620 colon
[10] = system: MOLT-4 leukemia

SMILES	TGI [1] [µM]	TGI [2] [µM]	TGI [3] [µM]	TGI [4] [µM]	TGI [5] [µM]	TGI [6] [µM]	TGI [7] [µM]	TGI [8] [µM]	TGI [9] [µM]	GI50 [3] [µM]	TGI [10] [µM]
O=C1Nc2ccccc2SC1=C(C(=O)c1ccccc1)C(=O)c1ccccc1	> 100	> 100	> 100	> 100	> 100	> 100	> 92.8	87.1	> 100	–	–
CC(C)(C)CC(C)(C)NCC(O)COc1ccc(C(C)(C)c2ccc(OCC(O)CNC(C)(C)CC(C)(C)C)cc2)cc1 (centres undefined)	2.96	2.98	2.84	1.85	3.01	3.13	–	3.02	0.463	1.41	1.26
CC1C(c2ccccc2)NC(c2ccccc2)CC1(N)C#N (centres undefined)	–	> 100	> 100	> 100	> 100	> 100	> 100	> 100	> 100	–	> 100
COc1ccc(C2=NN(c3nsc4ccccc34)C(=O)CC2)cc1	–	> 100	–	> 100	> 100	–	–	–	> 100	–	> 100
CC1=NN(c2nc(N)nc(-c3cc4ccccc4oc3=N)n2)C(C)(C)C1	32.2	37.4	43.9	30.5	> 100	31.1	43.4	39.9	–	–	34.6
CC(C)(CO)CNc1cc(Cl)nc(N)n1	> 100	> 100	> 100	> 100	–	> 100	> 100	> 100	> 100	–	> 100
c1ccc(OCc2nnc(CCCCCCCCc3nnc(COc4ccccc4)o3)o2)cc1	–	> 100	> 100	> 100	> 100	> 100	> 100	> 100	> 100	–	> 100
CC1=NN2CCC(=O)N=C2S1	> 100	–	> 100	> 100	> 100	> 100	> 100	> 100	> 100	–	> 100
Cc1ccc2c(=O)cc(-c3cccc(F)c3)[nH]c2n1	> 100	–	–	> 100	–	> 100	1.11	0.0504	> 100	–	> 100
Nc1c(C(=O)O)nnc2cc(Cl)ccc12	> 100	> 100	> 100	–	> 100	> 100	> 100	> 100	> 100	–	> 100
COc1ccc(/C=C2\OC(=O)C(Cl)=C2c2ccc(OC)c(Cl)c2)cc1	62.3	48.2	52.6	> 100	> 100	56.8	–	79	> 100	–	> 100
CSc1nc(-c2ccccc2)nc(=[N+]2CCOCC2)s1	> 100	> 100	–	> 100	> 100	–	–	84.1	> 100	–	> 100
Nc1ncc2c(n1)-c1ccccc1OC2	> 100	> 100	> 100	> 100	> 100	–	–	> 100	> 100	–	> 100
C=C(Cl)CN1c2ccccc2C=Cc2ccccc21	77.9	82	> 100	–	> 100	52.9	35.7	82	–	–	–
CCCCCCCCCCCCCCCCCCNc1nc(=O)n(C2CC(OP(=O)(O)OCC3OC(n4cc(F)c(=O)[nH]c4=O)CC3O)C(CO)O2)cc1F (centres undefined)	–	44.2	> 100	> 100	30.3	> 100	> 100	> 100	> 100	–	41.9
CC(C)OP(=O)(OC(C)C)/C(C#N)=C/c1c[nH]c2ccccc12	> 100	–	> 100	> 100	> 100	> 100	> 100	> 100	> 100	–	> 100
Cc1ccc(C(=O)N/N=C(\N=Nc2ccccc2C(=O)O)c2ccc(N(C)C)cc2)cc1	–	> 100	> 100	> 100	> 100	> 100	> 100	> 100	> 100	–	> 100
O=S(=O)(O)c1cc(N=[N+]([O-])c2ccc(N=Nc3ccccc3)cc2S(=O)(=O)O)ccc1/C=C/c1ccc(N=[N+]([O-])c2ccc(N=Nc3ccccc3)cc2S(=O)(=O)O)cc1S(=O)(=O)O	> 100	> 100	> 100	> 100	> 100	–	–	> 100	> 100	–	> 100
COC(=N)CCCl	> 100	> 100	> 100	> 100	> 100	> 100	–	> 100	> 100	–	> 100
Cc1ccsc1/C=N/Nc1cc(C)c2ccccc2n1	–	36.1	31	30.2	32.8	41.1	12.5	–	48.7	–	35.1
CCc1n[nH]c(=O)[nH]1	> 100	> 100	> 100	–	> 100	> 100	> 100	> 100	–	–	> 100
O=c1onc(Nc2ccccc2)n1-c1ccccc1	> 100	> 100	> 100	> 100	> 100	> 100	> 100	–	> 100	–	> 100
COc1cc(-c2nc(SC)nc3c2CCc2ccccc2-3)cc(OC)c1OC	–	> 100	> 100	> 100	> 100	–	> 100	–	> 100	–	96.2
COc1ccc(C2=Nc3c(nc(SC)[nH]c3=O)NC(c3ccccc3)C2)cc1 (centres undefined)	> 100	56.3	77.3	–	65.4	31	30	35.7	> 100	–	57.1
Cc1ccc(S(=O)(=O)N/N=C\c2c3ccccc3[n+](C)c3ccccc23)cc1	95.3	88.9	–	> 100	75.1	> 100	–	> 100	> 100	–	53.3
